# Reference: patent publication US20220110902A1, “Methods of treating amyloid-beta peptide diseases” (Ecole Polytechnique Federale de Lausanne, priority 2016, published 2022)
# “Also recorded” adds a separate entry of the source.
# How the values were obtained:
# [1] = test system: GMC101 worms; test: Transcript analysis of the MSR and other stress pathways in GMC101 worms; assay type: in vivo, C. elegans; conditions: for UPR^er and HSR gene transcripts: AZD 0.3 μM; for MSR transcripts (UPR^mt, mitophagy and respiration genes): AZD 300 nM
# Protocol: C. elegans: A total of ˜3000 worms per condition, divided in 3 biological replicates, was recovered in M9 buffer from NGM plates and lysed in the TriPure RNA reagent. Each experiment was repeated twice. Total RNA was transcribed to cDNA using QuantiTect Reverse Transcription Kit (Qiagen). Expression of selected genes was analyzed using the LightCycler480 system (Roche) and LightCycler® 480 SYBR Green I Master reagent (Roche). For C. elegans, 2 housekeeping genes were used to normalize the expression data, namely actin (act-1) and peroxisomal membrane protein 3 (pmp-3).
# atfs-1p::atfs-1 expression vector was created by amplifying 1488 bp sequence upstream from the transcription start site of atfs-1 coding region by using worm genomic DNA for the promoter region. The PCR product was digested with PciI and AgeI and ligated into the pPD30.38 expression vector containing gfp coding sequence cloned between inserted AgeI and NotI restriction sites. The atfs-1 coding sequence (CDS) was instead amplified using C. elegans cDNA, and the PCR product was inserted into pPD30.38 downstream of the promoter region, between AgeI and NheI restriction sites. The correctness of the atfs-1p::atfs-1 construct was assessed by sequencing with the indicated pPD30.38 and atfs-1 seq. primers. Two independent GMC101 lines (AUW9 and AUW10), and one CL2122 strain (AUW11) carrying atfs-1p::atfs-1 transgene as extrachromosomal array were analyzed in the study. Injection marker myo-2p::gfp was cloned by amplifying 1179 bp sequence upstream from the transcription start site of myo-2 coding region by using C. elegans genomic DNA. The PCR product was digested with PciI and AgeI and ligated into the pPD30.38 expression vector containing atfs-1::gfp to replace atfs-1 promoter sequence between PciI and AgeI restriction sites. All transgenic strains were created by using microinjection. For the generation of the GMC101 lines AUW12 and AUW13, GMC101 males were generated after exposure of L4 worms to 30° C. for 3 h, and let mate with L4 from clk-1 or nuo-6 mutant strains. The derived progeny was selected for homozygosis of the GMC101 intestinal GFP marker for few generations, and the homozygosis of the clk-1 or nuo-6 mutant alleles verified by amplifying and sequencing a 500 bp region of the worms genomic DNA encompassing the desired mutation. Bacterial feeding RNAi experiments were carried out as described. Clones used were atfs-1 (ZC376.7), ubl-5 (F46F11.4), mrps-5 (E02A10.1), dct-1 (C14F5.1), daf-16 (R13H8.1), sir-2.1 (R11A8.4), xbp-1 (R74.3) and hsf-1 (Y53C10A.12). Clones were purchased from GeneService and verified by sequencing. The novel atfs-1 RNAi construct (atfs-1 #2) used in this study was generated by amplifying 1400 bp of the atfs-1 genomic DNA sequence, starting from the last exon of atfs-1. Gateway cloning (Thermo Scientfic) was used to insert the PCR product into the gateway vector pL4440gtwy (Addgene #11344), and verified by sequencing. atfs-1 knockdown was verified by qPCR for all the atfs-1 RNAi constructs used herein. For phenotypic studies (see below), worms at the L4 larval stage were allowed to reach adulthood and lay eggs on the treatment plates. The deriving F1 worms were shifted from 20° C. to 25° C. at the L4 stage to induce amyloid accumulation and paralysis, and phenotypes assessed over time as indicated. For double RNAi experiments, we used a combination of atfs-1 with mrps-5 RNAi constructs as indicated in the text, with 80% amount of atfs-1 and 20% mrps-5 RNAi. For mRNA analysis, synchronized L1 worms were exposed to the treatment plates, and shifted from 20° C. to 25° C. when reaching the L4 stage. After 24 hours incubation at 25° C., corresponding to day 1 of adulthood, they were harvested in M9 for analysis.
# Doxycycline was obtained from Sigma-Aldrich and dissolved in water. For experiments, a final concentration of 15 μg/mL was used. Olaparib (AZD2281) was dissolved in DMSO to experimental concentrations of 300 nM. […]
# [2] = test system: GMC101 worms; test: Western-blot of amyloid aggregation in GMC101 worms; assay type: in vivo, C. elegans; conditions: for Aβ aggregation (proteotoxic stress): GMC101, day 1 of adulthood, dox 15 μg/mL, NR 1 mM, AZD 300 nM
# Protocol: C. elegans: Worms were lysed by sonication with RIPA buffer containing protease and phosphatase inhibitors (Roche), and analyzed by SDS-PAGE and western blot. The concentration of extracted protein was determined by using the Bio-Rad Protein Assay. Proteins were detected using the following antibodies: anti-β-actin (Sigma), anti-tubulin (Santa Cruz), atp-5, ucr-1 (Oxphos cocktail, Abcam), anti-β-Amyloid, 1-16 (6E10) (BioLegend). In addition to the housekeeping proteins, loading was monitored by Ponceau Red to ensure a homogeneous loading. Pixel intensity was quantified by using ImageJ software. Each immunoblot experiment was repeated at least twice using 3 biological replicates each containing approximately 1000 worms.
# During the assays, animals were exposed to Myriocin (dissolved in DMSO) from the egg stage on plates seeded with live HT115 E. coli bacteria. Control plates seeded with the same bacteria were prepared with the corresponding concentrations of DMSO. The day of the experiment (day 1 of adulthood, 3 days after hatching), the GMC101 population was shifted to 25° C. in order to induce the amyloid deposition in the body wall muscle. ˜1000 worms were used for western blotting assays.
# (§1) Worms were lysed by sonication with RIPA buffer containing protease and phosphatase inhibitors (Roche), and analyzed by western blot. The concentration of extracted protein was determined by the Bio-Rad Protein Assay. Proteins were detected using the following antibodies: anti-β-actin (Sigma) and anti-β-Amyloid (BioLegend). In addition to the housekeeping proteins, loading was monitored by Ponceau Red to ensure a homogeneous loading. The immunoblot experiment employed 3 biological replicates, each containing approximately 1000 worms.
# as §1, with “extracted proteins” for “extracted protein”, “3 biologicals” for “3 biological”
# The GMC101 worms were recovered 24 h after being shifted at 25° C. The population was treated with UA at two different concentrations, ie 20 uM and 50 uM.
# [3] = GMC101, day 1 of adulthood, dox 15 μg/mL, NR 1 mM
SMILES,"UPR^er and HSR gene transcripts [1, 3]","MSR transcripts (UPR^mt, mitophagy and respiration genes) [1, 3]",Aβ aggregation (proteotoxic stress) [2],"oxidative stress and mitochondrial stress response genes (sod-2, sod-4, atfs-1, skn-1) ([1]; GMC101, myriocin 5 uM and 10 uM)","UPR^mt and mitophagy genes (hsp-6, hsp-60, dct-1, pdr-1) ([1]; GMC101, myriocin treatment)","accumulation of amyloid-β aggregates ([2]; GMC101, Day 1 of adulthood, Myriocin 5 uM and 10 uM)","daf-16 and daf-16 target gene transcripts [1, 3]"
"O=C(c1cc(Cc2n[nH]c(=O)c3ccccc23)ccc1F)N1CCN(C(=O)C2CC2)CC1 [AZD, Olaparib, reference compound]",only a minimal impact,induced the MSR,reduced proteotoxic stress,,,,
"CCCCCCC(=O)CCCCCC/C=C/C[C@@H](O)[C@H](O)[C@@](N)(CO)C(=O)O [Myriocin, (E,2S,3R,4R)-2-amino-3,4-dihydroxy-2-(hydroxymethyl)-14-oxoicos-6-enoic acid]",,,,induction,upregulation,dose-dependently decreased; also recorded: dose-dependent reduction,
"NC(=O)c1ccc[n+]([C@@H]2O[C@H](CO)[C@@H](O)[C@H]2O)c1 [NR, Nicotinamide Riboside triflate]",only a minimal impact,induced the MSR,reduced proteotoxic stress,,,,did not affect
